{"source": "paper PMC5264272", "about": "(EBioMedicine, 2016)", "key": {"[1]": {"test_system": "murine Treg cells", "experiment": "Treg suppression assay with Tregs pre-treated in vitro", "type": "cell-based", "details": "10 μM, 2 h pre-treatment of Tregs, washing, 3-day suppression assay"}, "[2]": {"test_system": "human multiple myeloma cells", "details": "immunodeficient mice; ref Chauhan et al., 2012; cited from earlier work"}}}
{"smiles": "CC(=O)c1cc([N+](=O)[O-])c(Sc2cccc(Cl)c2Cl)s1", "note": "[P5091]", "values": [{"measurement": "effect on murine Treg function in vitro", "setting": "[1]", "result": "almost completely abrogated Treg function"}, {"measurement": "growth of human multiple myeloma cells as xenografts", "setting": "[2]", "result": "direct effects on the growth"}]}
